The numbers were not newly measured in publication PMC11255275, “Structural insights into the triple agonism at GLP-1R, GIPR and GCGR manifested by retatrutide” (Cell Discovery, 2024), which cites them from elsewhere.

Data set [1] deals with GLP-1R. To be noted: among GLP-1R, GIPR and GCGR; general statement in introduction; cited from earlier work. An excerpt: (§1) The most successful treatments currently available include glucagon-like peptide-1 (GLP-1) receptor agonists (GLP-1RAs), exemplified by semaglutide (approved in 2017, $19.9 billion sales in 2023)[3] and tirzepatide (approved in 2022, $5.3 billion sales in 2023)[4].

The subject of data set [2] is GIPR. To be noted: in addition to GLP-1R; cited from earlier work.
Text: as §1

As for semaglutide, in data set [1], the receptor activation entry is reported as “solely activates GLP-1R”.
tirzepatide: the receptor activation entry in data set [2] was “also activates glucose-dependent insulinotropic polypeptide (GIP) receptor (GIPR)”.
